Data on 34 molecules can be found in ChEMBL document CHEMBL1139770, “Non-nucleoside inhibitors of the measles virus RNA-dependent RNA polymerase complex activity: Synthesis and in vitro evaluation” (Bioorg Med Chem Lett, 2007).

Molecules are shown by their SMILES. pEC50: −log10 of the molar value.

Data set [1] is described as follows: Cytotoxicity against Vero cells by MTT assay. The class given is cell-based. The conditions noted are these: chlorocebus sabaeus. A general note: Tetrazolium assays rely on reduction of a dye to a coloured formazan, in cell work by metabolically active cells.
In data set [2] the test system is Measles morbillivirus. The experiment in a line: Antiviral activity against Measles virus Alaska assessed as inhibition of viral-induced cytopathicity. The class given is functional, organism-based. Background: Cytopathic effects are the visible damage that an infection or toxin causes in cultured cells.
Data set [3] concerns Measles morbillivirus. Briefly: Antiviral activity against Measles virus Alaska assessed as virus titer reduction. The class given is functional.
Data set [4] is described as follows: Cytotoxicity against Vero cells by Trypan blue exclusion assay. The class given is cell-based. The note with it: chlorocebus sabaeus.
The nature of data set [5]: Ratio of CC50 for Vero cells to IC50 for Measles virus Alaska. The class given is functional.

The CC50 is the concentration giving 50% cytotoxicity. As a reminder, the pEC50 is −log10 of the EC50, conventionally taken in molar units.

Turning to `O=C(Nc1ccc(S(=O)(=O)N2CCCC2)cc1)c1ccc(Br)cc1`, in data set [1], it took 59 µM to reach half-maximal cytotoxicity (CC50).

Turning to `Cn1nc(C(F)(F)F)cc1CNc1ccc(S(=O)(=O)N2CCCC2)cc1`, the half-maximal cytotoxic concentration (CC50) in data set [1] was greater than 300 µM. Further, in the data set on Measles morbillivirus [2], the pEC50 is less than 4.12.

Regarding `O=C(Nc1ccc(S(=O)(=O)N2CCCC2)cc1)c1ccc(C(F)(F)F)cc1[N+](=O)[O-]`, the CC50 in data set [1] is greater than 300 µM. Moreover, the pEC50 in the data set with Measles morbillivirus [2] was less than 4.12.

Turning to `COc1ccc(Br)c(C(=O)Nc2ccc(S(=O)(=O)N3CCCC3)cc2)c1`, the half-maximal cytotoxic concentration (CC50) in data set [1] was greater than 300 µM. Moreover, the pEC50 in the data set on Measles morbillivirus [2] is less than 4.12.

For the molecule `Cn1nc(C(F)(F)F)cc1C(=O)Cc1ccc(S(=O)(=O)N2CCCC2)cc1`, the cytotoxic concentration (CC50) in data set [1] was greater than 300 µM. The pEC50 with Measles morbillivirus [2] was 4.81.

As to `Cn1nc(C(F)(F)F)cc1C(=O)Nc1ccc(S(=O)(=O)N2CCOCC2)cc1`, the CC50 in data set [1] was greater than 300 µM. For the same molecule, the negative logarithm of the EC50 (pEC50) with Measles morbillivirus [2] is 4.37.

On to `O=C(Nc1ccc(S(=O)(=O)N2CCCC2)cc1)c1ccc(C(F)(F)F)cc1`, for which, in data set [1], the 50% cytotoxic concentration (CC50) was greater than 300 µM. Also, in the data set on Measles morbillivirus [2], the negative logarithm of the EC50 (pEC50) was 4.32.

Take `O=C(Nc1ccc(S(=O)(=O)N2CCCC2)cc1)c1ccc([N+](=O)[O-])cc1Cl`: the CC50 in data set [1] was greater than 300 µM. The negative-log EC50 (pEC50) with Measles morbillivirus [2] is less than 4.12.

`O=C(Nc1ccc(S(=O)(=O)N2CCCC2)cc1)c1nc2ccccc2s1` yielded a half-maximal cytotoxic concentration (CC50) in data set [1] greater than 300 µM. In the data set on Measles morbillivirus [2], the negative-log EC50 (pEC50) is less than 4.12.

On to `O=C(Nc1ccc(S(=O)(=O)N2CCCC2)cc1)c1nccn1-c1ccccc1C(F)(F)F`, for which the CC50 in data set [1] was greater than 300 µM. The pEC50 in the data set on Measles morbillivirus [2] is 4.19.

In turn, `Cn1nc(C(C)(C)C)cc1C(=O)Nc1ccc(S(=O)(=O)N2CCCC2)cc1` came in with a 50% cytotoxic concentration (CC50) in data set [1] of 140 µM. For the same molecule, in the data set on Measles morbillivirus [2], the negative logarithm of the EC50 (pEC50) was 4.60.

With `Cn1nc(C(F)(F)F)cc1C(O)Cc1ccc(S(=O)(=O)N2CCCC2)cc1` (stereo unspecified), the CC50 in data set [1] is greater than 300 µM. Moreover, in the data set on Measles morbillivirus [2], the pEC50 was 4.39.

With `O=C(Nc1ccc(S(=O)(=O)N2CCCC2)cc1)c1ccco1`, the CC50 in data set [1] was greater than 300 µM. Further, the negative-log EC50 (pEC50) in the data set on Measles morbillivirus [2] is less than 4.12.

For `Cn1nc(C(F)(F)F)cc1C(=O)Nc1ccc(S(=O)(=O)N2CCCC2)cc1N`, the half-maximal cytotoxic concentration (CC50) in data set [1] is greater than 300 µM. Moreover, in the data set on Measles morbillivirus [2], the negative-log EC50 (pEC50) is no more than 4.12.

With `Cn1nc(C(F)(F)F)cc1C(=O)Nc1ccc(S(=O)(=O)N2CCC[C@H]2C(=O)O)cc1`, in data set [1], the CC50 is greater than 300 µM. Moreover, the negative-log EC50 (pEC50) in the data set with Measles morbillivirus [2] was 4.64.

Take `Cc1nc(C(F)(F)F)ccc1C(=O)Nc1ccc(S(=O)(=O)N2CCCC2)cc1`: in data set [1], the half-maximal cytotoxic concentration (CC50) is greater than 300 µM. Further, in the data set on Measles morbillivirus [2], the pEC50 was less than 4.12.

On to `Cn1nc(C(F)(F)F)cc1C(=O)Nc1ccc(S(=O)(=O)N2CCCC2)cc1NC(=O)c1cc(C(F)(F)F)nn1C`, for which it took 13 µM to reach half-maximal cytotoxicity in data set [1] (CC50).

Molecule `Cc1cc(C(=O)Nc2ccc(S(=O)(=O)N3CCCC3)cc2)n(C)n1` displayed a half-maximal cytotoxic concentration (CC50) in data set [1] greater than 300 µM. In addition, the pEC50 in the data set with Measles morbillivirus [2] was less than 4.12.

With `Cn1nc(C(F)(F)F)cc1C(=O)Nc1ccc(S(=O)(=O)N2CCCC2)cc1O`, the CC50 in data set [1] turned out to be 288 µM. Further, the pEC50 with Measles morbillivirus [2] was less than 4.12.

As for `Cn1nc(C(F)(F)F)cc1COc1ccc(S(=O)(=O)N2CCCC2)cc1`, the 50% cytotoxic concentration (CC50) in data set [1] is greater than 300 µM. The negative logarithm of the EC50 (pEC50) in the data set with Measles morbillivirus [2] was less than 4.12.

On to `O=C(Nc1ccc(S(=O)(=O)N2CCCC2)cc1)c1ccccc1C(F)(F)F`, for which the 50% cytotoxic concentration (CC50) in data set [1] is greater than 300 µM. Moreover, in the data set with Measles morbillivirus [2], the negative logarithm of the EC50 (pEC50) is less than 4.12.

Turning to `O=C(Nc1ccc(S(=O)(=O)N2CCCC2)cc1)c1cccc(C(F)(F)F)c1`, the half-maximal cytotoxic concentration (CC50) in data set [1] was greater than 300 µM. Further, the negative-log EC50 (pEC50) with Measles morbillivirus [2] was less than 4.12.

`Cn1nc(C(F)(F)F)cc1C(=O)Nc1ccc(S(=O)(=O)N2CCNCC2)cc1` returned a CC50 in data set [1] of 126 µM. The negative logarithm of the EC50 (pEC50) with Measles morbillivirus [2] was 4.55.

As for `O=C(Nc1ccc(S(=O)(=O)N2CCCC2)cc1)c1cc(C(F)(F)F)nn1Cc1ccccc1`, the CC50 in data set [1] stood at 37 µM. Further, the pEC50 with Measles morbillivirus [2] is less than 4.12.

`Cn1nc(C(F)(F)F)cc1C(=O)Nc1ccc(S(=O)(=O)N2CCC[C@H]2C(=O)OCc2ccccc2)cc1`: the CC50 in data set [1] amounted to 100 µM. In addition, the negative-log EC50 (pEC50) with Measles morbillivirus [2] is 4.85.

With `O=C(Nc1ccc(S(=O)(=O)N2CCCC2)cc1)c1ccc(F)cc1`, the 50% cytotoxic concentration (CC50) in data set [1] is greater than 300 µM. Besides, the pEC50 in the data set with Measles morbillivirus [2] is less than 4.12.

In data set [1], `O=C(Nc1ccc(S(=O)(=O)N2CCCC2)cc1)c1ccc(CCl)cc1` had a CC50 of 11 µM.

In the case of `O=C(Nc1ccc(S(=O)(=O)N2CCCC2)cc1)c1cc(C(F)(F)F)ccc1F`, in data set [1], the 50% cytotoxic concentration (CC50) came out at 76 µM. In addition, in the data set with Measles morbillivirus [2], the pEC50 is no more than 4.12.

Take `Nc1ccc(C(=O)Nc2ccc(S(=O)(=O)N3CCCC3)cc2)c(Cl)c1`: the CC50 in data set [1] is greater than 300 µM. The pEC50 in the data set on Measles morbillivirus [2] is less than 4.12.

As to `O=C(Nc1ccc(S(=O)(=O)N2CCCC2)cc1)c1cccs1`, the CC50 in data set [1] is greater than 300 µM. In addition, the pEC50 with Measles morbillivirus [2] is less than 4.12.

The molecule `Cn1nc(C(F)(F)F)cc1C(=O)Nc1ccc(S(=O)(=O)N2CCCCC2C(=O)O)cc1` (stereo unspecified) returned a 50% cytotoxic concentration (CC50) in data set [1] greater than 300 µM. Besides, the pEC50 with Measles morbillivirus [2] was less than 4.12.

As for `Cn1nc(C(F)(F)F)cc1C(=O)Nc1ccc(S(=O)(=O)N2CCCCC2)cc1`, the CC50 was greater than 300 µM in data set [1] and 199 µM in data set [4]. Further, in the data set on Measles morbillivirus [2], the negative-log EC50 (pEC50) is greater than 5.64. Moreover, the Activity with Measles morbillivirus [3] was 0.012 µM. For the same molecule, the “Ratio CC50/IC50” value in data set [5] stood at 16500.

`Cn1nc(C(F)(F)F)cc1C(=O)Nc1ccc(S(=O)(=O)N2CCCC2)cc1OC(=O)c1cc(C(F)(F)F)nn1C` registered a CC50 in data set [1] of 14 µM.

As for `Cn1nc(C(F)(F)F)cc1C(=O)Nc1ccc(S(=O)(=O)n2ccc3ccccc32)cc1`, the half-maximal cytotoxic concentration (CC50) in data set [1] is 13 µM. The CC50 values of the last two molecules are within 1.5-fold of each other.
